In PubChem BioAssay (NCI) one finds TGI and GI50 data, which are given here for 24 compounds.

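Grown in 96-well plates, cells were treated for 48 hours with each compound at five concentrations. Insufficient inhibition: endpoint recorded as highest concentration tested. GI50: concentration for 50% inhibition of growth. TGI: total growth inhibition.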

Test in all cases: growth of human tumour cells (NCI), 48 h
The test system of assay [1] is NCI-H522 lung.
Assay [2] relates to HT29 colon.
The test system of assay [3] is NCI/ADR-RES ovarian.
The test system of assay [4] is M14 melanoma.
Assay [5] concerns HL-60(TB) leukemia.
The subject of assay [6] is SR leukemia.
In assay [7] the test system is SN12C renal.
The subject of assay [8] is DU-145 prostate.
Assay [9] deals with SNB-19 CNS.
Assay [10] has as its system CCRF-CEM leukemia.
Assay [11] has as its system MALME-3M melanoma.
In assay [12] the test system is SF-268 CNS.

Take `CCOC(=O)NC(Nc1ccc(F)cc1)(C(=O)OCC)C(F)(F)F` (stereo not given): the TGI in assay [1], in [2], in assay [3], in assay [4], in assay [5] and in assay [6] was above 100 µM each time. For the same compound, the TGI is above 100 µM in assay [7]; above 100 µM in assay [8]; above 100 µM in [9]; above 23.9 µM in assay [10]; above 100 µM in [11]; above 100 µM in assay [12].

For `C=C1C(=O)O[C@H]2C1C[C@@H](OC(C)=O)/C(C)=C/CC[C@@]1(C)O[C@H]21` (stereo not given in full), the TGI in assay [1] was determined as 10.2 µM; in assay [2], 41.5 µM; in assay [3], 32.3 µM; in assay [4], 16.1 µM; in [6], 20.1 µM; in [7], 29.2 µM. Moreover, the TGI turned out to be 27.8 µM in assay [8], 78 µM in assay [9], 4.75 µM in assay [10] and 18.7 µM in assay [11].

In the case of `O=C1CC(CC(=O)c2ccc(Br)cc2)C(=O)/C1=C(/O)c1ccc(Br)cc1` (stereo not given), the TGI in [1], in assay [2], in assay [3], in [4], in assay [5] and in [6] was above 100 µM throughout. The TGI in assay [7], in [8], in assay [9], in assay [10], in assay [11] and in assay [12] was above 100 µM each time.

Regarding `COc1ccccc1/C=C/C1=NN(c2cccc(S(=O)(=O)O)c2)C2(C1)C(Cl)C(=O)N2c1nc2ccccc2s1` (stereo not given), the TGI was above 58.8 µM in assay [1]; above 100 µM in assay [2]; above 100 µM in assay [3]; above 100 µM in [4]; 45.5 µM in assay [5]; 55.2 µM in assay [6]. Also, the TGI in [7] was above 100 µM; in assay [8], above 100 µM; in [9] it was above 100 µM; in assay [10], 33.1 µM; in assay [11] it was above 100 µM; in [12] it was above 100 µM.

Consider `COc1cc2c(c(OC)c1OC)-c1ccc(SC)c(=O)cc1[C@@H](O)CC2`, for which the GI50 was 0.0116 µM in assay [1]; 6.13 µM in [5]; 0.0667 µM in assay [6]; 0.028 µM in assay [11]; 0.0153 µM in [12]. Moreover, the TGI in [2] is 0.0703 µM; in assay [3], 0.302 µM; in assay [7], above 100 µM; in assay [8], above 100 µM; in assay [10] it was above 100 µM.

On to `CCOC(=O)/C(=N/Nc1ccccc1)N1C(=S)C=C(C)NN(C)C1=S`, for which the TGI in [1], in assay [2], in assay [3], in assay [4], in [5] and in [6] was above 100 µM in each case. Further, the TGI in assay [7], in [8], in assay [9], in assay [10] and in assay [12] was above 100 µM throughout.

With `CC1=CC[C@@]2(C)CC[C@](O)(C(C)C)C2C(OC(=O)c2ccccc2)C1` (stereo not given in full), the TGI in assay [1] amounted to 33.2 µM; in assay [2] it was 32.7 µM; in assay [3], 41.5 µM; in assay [4], 37.8 µM; in [5], 82.2 µM; in assay [6], 97 µM. The TGI in assay [7] came to 44.9 µM; in assay [8], 32.5 µM; in assay [9], 40.5 µM; in assay [10], 54.7 µM; in [11], 41.6 µM; in [12] it was 51.7 µM.

With `C=C(C(=O)OC)[C@@H]1C[C@@H](OC(C)=O)C2=C[C@H](C[C@@]3(C)O[C@@H]3C3=CC(C)=C(O3)[C@H]1OC(C)=O)OC2=O`, the TGI in [1] was 5.83 µM; in assay [2] it was 76.9 µM; in assay [3], above 100 µM; in assay [4], 43.2 µM; in assay [6], 37.6 µM; in assay [7], 56.8 µM. For the same compound, the TGI was above 100 µM in assay [8], above 100 µM in [9], 30.7 µM in assay [11] and above 100 µM in assay [12].

As to `Nc1nc(NCCCO)cc(=O)[nH]1`, the TGI in assay [1], in assay [2], in assay [3], in [4], in [5] and in [6] was above 100 µM in each case. Further, the TGI in [7], in assay [8], in assay [9], in [10], in assay [11] and in assay [12] was above 100 µM in each case.

As for `NC1CCC(N(CC(=O)O)CC(=O)O)C(N(CC(=O)O)CC(=O)O)C1` (stereo not given), the TGI in assay [1], in assay [2], in assay [3], in assay [5], in assay [6] and in assay [7] was above 100 µM each time. Moreover, the TGI in assay [8], in [9], in assay [10], in assay [11] and in assay [12] was above 100 µM each time.

As to `O=C1O[C@H]2[C@H](OC(=O)c3cc(O)c(O)c(O)c3)[C@@H](OC(=O)c3cc(O)c(O)c4c3[C@@H]3C1=CC(=O)C(O)(O)C3(O)O4)[C@H](OC(=O)c1cc(O)c(O)c(O)c1)O[C@@H]2COC(=O)c1cc(O)c(O)c(O)c1` (stereo not given in full), the TGI in assay [1], in [2], in assay [3], in assay [4], in assay [5] and in [6] was above 100 µM each time. Besides, the TGI in [7], in assay [8], in [9], in assay [10], in [11] and in assay [12] was above 100 µM each time.

With `CCOP(=O)(OCC)C(C(=O)OC)C(=O)C(=O)Nc1cccc(O)c1` (stereo not given), the TGI in [1], in assay [2], in assay [3], in [4], in assay [6] and in assay [7] was above 100 µM in each case. Further, the TGI in assay [8], in assay [9], in [10], in assay [11] and in [12] was above 100 µM each time.

Consider `CC(C)(Cl)C(Br)CCC(Br)(CCl)C(Cl)CBr` (stereo not given), for which the TGI in assay [1], in assay [2], in [3], in assay [4], in assay [5] and in assay [6] was above 10 µM throughout. The TGI in assay [7], in assay [8], in [9], in assay [10] and in [11] was above 10 µM in each case.

`CCc1ccc(COC(=O)C2=C(C)NC(C)=C(C(=O)OCc3ccc(CC)cn3)C2C2=COCCO2)nc1`: the TGI is 40.7 µM in assay [1]; 43.7 µM in [2]; 63.4 µM in assay [3]; 31.1 µM in [4]; 66.7 µM in assay [5]; above 100 µM in assay [6]. Further, the TGI in assay [8] was above 100 µM; in assay [9], 54.5 µM; in assay [10], 49.8 µM; in assay [12], above 100 µM.

As to `COC(=O)/C=C1/OC(c2ccccc2)=C(C)C1=O`, the TGI in [1] is 57.5 µM; in assay [2] it was 4.79 µM; in [3] it was 65.5 µM; in assay [4] it was 24.4 µM; in [5], 4.97 µM; in assay [6] it was 7.09 µM. Also, the TGI in assay [8] is 33.6 µM; in assay [9] it was 30.5 µM; in assay [10], above 100 µM; in [11] it was 26.7 µM; in [12], 35.5 µM.

Regarding `Cc1cc2nc3ccccc3n2c2nc(N)ccc12`, the TGI in assay [1], in assay [2], in [3], in assay [4], in assay [5] and in assay [6] was above 100 µM in each case. Moreover, the TGI in assay [7], in [8], in assay [9], in assay [10] and in assay [12] was above 100 µM each time.

For `COc1ccc(OC)c2c1C=CC(Br)=CC2`, the TGI in assay [1] is 0.579 µM; in assay [2] it was 0.284 µM; in assay [3], above 1 µM; in assay [4], 0.822 µM; in assay [6], 0.488 µM; in assay [7] it was above 1 µM. In addition, the TGI in [8] was above 1 µM; in [9] it was above 1 µM; in [10], above 1 µM; in assay [11] it was 0.312 µM; in [12], above 1 µM.

For the compound `CN(C)c1c(C2OC(CO)C(O)C2O)c(=O)c1=O` (stereo not given), the TGI in [1], in assay [2], in [3], in assay [4], in assay [6] and in assay [7] was above 100 µM in each case. The TGI in assay [8], in [9], in [10], in [11] and in assay [12] was above 100 µM throughout.

As to `Fc1ccc2c3c([nH]c2c1)CCN(Cc1ccccc1)C3`, the TGI is 47.9 µM in assay [2]; 71 µM in [3]; 34.5 µM in assay [4]; 37.6 µM in [5]; 40.7 µM in [6]; 35.4 µM in assay [7]. Further, the TGI in [8] is 70.9 µM; in [9] it was 30.8 µM; in assay [10] it was above 100 µM; in assay [11], 35 µM; in [12], 49.2 µM.

For `CN(C)N1C(=O)S/C(=C\c2ccc([N+](=O)[O-])cc2)C1=O`, the TGI in assay [1], in assay [2], in assay [3], in assay [4], in assay [5] and in [6] was above 100 µM each time. Also, the TGI in assay [7], in assay [8], in assay [10], in assay [11] and in [12] was above 100 µM throughout.

With `CC(=O)NC(NCCN)(c1ccccc1)c1ccccc1`, the TGI in assay [2], in assay [3], in assay [4], in assay [5], in [6] and in [7] was above 100 µM throughout. The TGI in assay [8], in [9], in assay [10], in assay [11] and in assay [12] was above 100 µM throughout.

For the compound `CC(=O)c1ccc2c(c1)CC1(C2)Cc2cc3c(c(C(=O)O)c2C1)CCC3` (stereo not given), the TGI in assay [1], in assay [2], in assay [3], in [5], in assay [6] and in assay [7] was above 100 µM each time. Also, the TGI in assay [8], in [10], in assay [11] and in [12] was above 100 µM in each case.

On to `CCOC(=O)c1nc2cc(C(F)(F)F)ccc2nc1Nc1ccc(C(=O)OC)s1`, for which the TGI in assay [1] was 90.3 µM; in assay [2] it was above 100 µM; in assay [3], above 100 µM; in assay [4], above 100 µM; in [5], above 100 µM; in [6], 39.6 µM. Also, the TGI in assay [8], in [9], in [10], in [11] and in [12] was above 100 µM each time.

On to `CCOP(=O)(OCC)C(NC(=O)C(C(F)(F)F)C(F)(F)F)c1ccccc1` (stereo not given), for which the TGI was above 100 µM in assay [2]; above 100 µM in [3]; above 100 µM in assay [4]; 67.9 µM in assay [5]; above 100 µM in assay [6]; above 100 µM in assay [7]. Moreover, the TGI in assay [8], in assay [9], in assay [10], in assay [11] and in [12] was above 100 µM in each case.
